Values after ≈ are worked out from the molar mass of the structure shown. Read-outs that look alike come from different tables or passages of the source.
Experiments:
[1] = tested on: S. aureus ATCC 13709 (Smith diffuse); assay: Murine lethal bacteremic peritonitis (septicemia) efficacy; type: in vivo, mice; details: for responders at 0.312 mg/kg: dose 0.312 mg/kg s.c. at 0 and 2 h post-challenge; for responders at 1.25 mg/kg: dose 1.25 mg/kg s.c. at 0 and 2 h post-challenge; for responders at 2.5 mg/kg: dose 2.5 mg/kg s.c. at 0 and 2 h post-challenge; for ED50: ATCC13709, mice, S. aureus ATCC 13709 i.p., s.c. at 0 and 2 h post-challenge, probit method; for responders at 0.078 mg/kg: dose 0.078 mg/kg s.c. at 0 and 2 h post-challenge; for responders at 0.156 mg/kg: dose 0.156 mg/kg s.c. at 0 and 2 h post-challenge; for responders at 0.625 mg/kg: dose 0.625 mg/kg s.c. at 0 and 2 h post-challenge
Method: 10 mice/group were injected intraperitoneally with 2.98×10^7 cfu S. aureus ATCC 13709 (Smith diffuse) and treated at 0 and 2 hrs post-challenge with serial two-fold doses of new cephalosporin antibiotic, imipenem and vancomycin subcutaneously in order to determine the ED50. Male Swiss-Webster mice weighing originally 24.2-26.1 g were obtained from Charles Rivers Labs, Hollister, Calif. Mice were housed 10 per cage and given free access to water and mouse chow.
Staphylococcus aureus ATCC 13709 (Smith diffuse) was grown overnight at 37° C. in Brain-heart Infusion broth (BHIB). The following morning, it was subcultured to fresh BHIB and incubated for 4-5 h at 37° C. The log-phase growth cells were washed once with physiological saline and adjusted to the desired concentration by correlation of absorbency at OD 600 nm with predetermined plate counts (NCCLS, 1994). The cell suspension was mixed with an equal volume of sterile 14% hog-gastric mucin (2). Inoculum was kept in an ice bath until used (<1 h).
Mice were challenged via an injection of 0.5 mL bacterial suspension intraperitoneally. The bacterial challenge was 2.98×10^7 cfu/mouse.
Imipenem (Primaxin IV; Lot 7294A), vancomycin (Vancocin; Lot 8MU60W), and new cephalosporin antibiotic were prepared by serial two-fold dilutions to concentrations of 0.078-0.005 mg/mL, 1.2-0.075 mg/mL, 0.3-0.02 mg/mL, 0.3-0.02 mg/mL and 0.3-0.02 mg/mL respectively in sterile water (1). All antibiotics were administered subcutaneously in 0.1 mL volumes at 0 and 2 hours post-challenge. Concentrations of all compounds are based on the weight of the bioactive ingredients.
The 50% effective dose (ED50) was calculated by the probit method (3) utilizing a program entitled Probit (Nycomed-Salutar).

[2] = Pharmacokinetic evaluation in rat (clearance); type: in vivo; details: male, Sprague-Dawley (SD), serum, iv, read-out: Pharmacokinetics Clearance (converted)
Excerpt: Four male SD rats with femoral and jugular vein catheters were obtained from Hilltop Lab Animals, Inc. (Scottdale, Pa.). The catheters in the femoral and jugular veins were filled with 10 units/mL heparin in saline, and kept patent by changing the solution daily. The animals were quarantined for a minimum of two days prior to use, and were maintained on a 12-h light:dark schedule with constant access to food and water before and during the study. On the day of dosing, the animals weighed […] (mean±s.d.).
A 4 mg/mL (active component) dosing solution of mesylate salt of compound 17 was prepared in sterile saline for injection. […] Blood samples (0.2 mL aliquots) were collected from the jugular vein catheter 5, 15, 20, 25, 30, and 45 min, and 1, 2, 3, and 4 h after the start of the infusion. The blood was centrifuged for 10 min and the serum was stored ≦−70° C. until analysis by HPLC.
The plasma concentrations from individual animals were fit to a two-compartment model with zero order input and first-order elimination from the central compartment using weighted nonlinear regression (WinNonlin, Pharsight, Palo Alto, Calif.). Pharmacokinetic parameters were calculated from the fitted parameters using standard equations (Gibaldi M, Perrier D. 1982. Pharmacokinetics, 2nd ed., Marcel Dekker Inc., New York.).

[3] = tested on: S. aureus Col8A (Meth^S)(lac^−); assay: Broth microdilution MIC (NCCLS); type: cell-based; details: Staphylococcus aureus
Summary of the method: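 Endpoint: lowest concentration preventing visible or OD650-detected growth. Conditions: Mueller-Hinton broth, serial 2-fold compound dilutions, 5×10^5 CFU/mL, 35° C for 24 h. Inoculum counts were checked by plating on TSA.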

[4] = Staphylococcus aureus, ATCC13709, sc, read-out: Efficacy in murine septicemia % survival
[5] = dose 5 mg/kg s.c. at 0 and 2 h post-challenge

SMILES | responders at 0.312 mg/kg [1, 4] [%] | responders at 1.25 mg/kg [1, 4] [%] | responders at 2.5 mg/kg [1, 4] [%] | ED50 ([1]; Staphylococcus aureus) [mg/kg] | Efficacy in murine septicemia % survival [1, 5] | clearance ([2]; dose 20.0 mg/kg) [mL/min/kg] | responders at 0.625 mg/kg [1, 4] [%] | other results
NCCSCc1ncsc1SC1=C(C(=O)O)N2C(=O)[C@@H](NC(=O)/C(=N\O)c3cccc(N)n3)[C@H]2SC1 [Cmpd 23, (7R)-7-[(Z)-2-(2-aminopyrid-6-yl)-2-(hydroxyimino)acetamido]-3-[4-(2-aminoethylthiomethyl)-1,3-thiazol-5-ylthio]-3-cephem-4-carboxylic acid] | 40 | 100 | 100 | 0.39 | 5/100% | 13.5 | – | –
NCCSCc1cnccc1SC1=C(C(=O)O)N2C(=O)C(NC(=O)/C(=N\O)c3csc(N)n3)C2SC1 (stereo not shown) [Cmpd 19] | 20 | 100 | – | – | – | – | 80 | responders at 0.078 mg/kg [1, 4]: 20%; responders at 0.156 mg/kg [1, 4]: 20%; clearance ([2]; dose 42.5 mg/kg): 20.8 mL/min/kg
NCCSCc1ccncc1SC1=C(C(=O)O)N2C(=O)[C@@H](NC(=O)/C(=N\O)c3nc(N)sc3Cl)[C@H]2SC1 [Cmpd 21, (7R)-7-[(Z)-2-(2-amino-5-chlorothiazol-4-yl)-2-(hydroxyimino)acetamido]-3-[4-(2-aminoethylthiomethyl)pyrid-3-ylthio]-3-cephem-4-carboxylic acid] | 0 | 70 | 80 | 0.79 | – | 12.2 | 0 | –
NCCSCc1cnccc1SC1=C(C(=O)O)N2C(=O)[C@@H](NC(=O)/C(=N\O)c3cccc(N)n3)[C@H]2SC1 [Cmpd 24, (7R)-7-[(Z)-2-(2-aminopyrid-6-yl)-2-(hydroxyimino)acetamido]-3-[3-(2-aminoethylthiomethyl)pyrid-4-ylthio]-3-cephem-4-carboxylic acid] | – | 90 | 100 | 0.76 | 5/100% | 47.5 | 30 | Efficacy in murine septicemia % survival ([1]; dose 10 mg/kg s.c. at 0 and 2 h post-challenge): 10/100%; MIC [3]: 0.5 µg/mL (≈ 0.89 µM)
N=C(N)NCCSCc1cnccc1SC1=C(C(=O)O)N2C(=O)[C@@H](NC(=O)/C(=N\O)c3nsc(N)n3)[C@H]2SC1 [Cmpd 25, (7R)-7-[(Z)-2-(5-amino-1,2,4-thiadiazol-3-yl)-2-(hydroxyimino)acetamido]-3-[3-(2-guanidinoethylthiomethyl)pyrid-4-ylthio]-3-cephem-4-carboxylic acid] | 80 | 100 | 100 | < 0.31 | 5/100% | 18.7 | 100 | –
NCCSCc1ncccc1SC1=C(C(=O)O)N2C(=O)[C@@H](NC(=O)/C(=N\O)c3nsc(N)n3)[C@H]2SC1 [Cmpd 17, (7R)-7-[(Z)-2-(5-amino-1,2,4-thiadiazol-3-yl)-2-(hydroxyimino)acetamido]-3-[2-(2-aminoethylthiomethyl)pyrid-3-ylthio]-3-cephem-4-carboxylic acid] | – | – | – | 0.39 | – | – | – | responders at 0.12 mg/kg ([1]; Staphylococcus aureus, ATCC13709, sc, dose 0.12 mg/kg s.c. at 0 and 2 h post-challenge, read-out: Efficacy in murine septicemia % survival): 10%; responders at 0.25 mg/kg ([1]; Staphylococcus aureus, ATCC13709, sc, dose 0.25 mg/kg s.c. at 0 and 2 h post-challenge, read-out: Efficacy in murine septicemia % survival): 20%; responders at 0.5 mg/kg ([1]; Staphylococcus aureus, ATCC13709, sc, dose 0.5 mg/kg s.c. at 0 and 2 h post-challenge, read-out: Efficacy in murine septicemia % survival): 50%; responders at 1 mg/kg ([1]; Staphylococcus aureus, ATCC13709, sc, dose 1.0 mg/kg s.c. at 0 and 2 h post-challenge, read-out: Efficacy in murine septicemia % survival): 100%; responders at 2 mg/kg ([1]; Staphylococcus aureus, ATCC13709, sc, dose 2.0 mg/kg s.c. at 0 and 2 h post-challenge, read-out: Efficacy in murine septicemia % survival): 100%; clearance ([2]; dose 16.4 mg/kg, mesylate salt, 20 min i.v. infusion): 8.33 mL/min/kg
NCCSCc1cnccc1SC1=C(C(=O)O)N2C(=O)[C@@H](NC(=O)/C(=N\O)c3nc(N)sc3Cl)[C@H]2SC1 [Cmpd 20, (7R)-7-[(Z)-2-(2-amino-5-chlorothiazol-4-yl)-2-(hydroxyimino)acetamido]-3-[3-(2-aminoethylthiomethyl)pyrid-4-ylthio]-3-cephem-4-carboxylic acid] | 10 | 58 | 80 | 1 | – | 26.5 | 30 | responders at 0.156 mg/kg [1, 4]: 20%
NCCSCc1ncccc1SC1=C(C(=O)O)N2C(=O)[C@@H](NC(=O)/C(=N\O)c3nc(N)sc3Cl)[C@H]2SC1 [Cmpd 13, (7R)-7-[(Z)-2-(2-amino-5-chlorothiazol-4-yl)-2-(hydroxyimino)acetamido]-3-[2-(2-aminoethylthiomethyl)pyrid-3-ylthio]-3-cephem-4-carboxylic acid] | – | 100 | 100 | – | 5/100% | 13.2 | 100 | –
NCCSCc1cnccc1SC1=C(C(=O)O)N2C(=O)[C@@H](NC(=O)/C(=N\O)c3nsc(N)n3)[C@H]2SC1 [Cmpd 18, (7R)-7-[(Z)-2-(5-amino-1,2,4-thiadiazol-3-yl)-2-(hydroxyimino)acetamido]-3-[3-(2-aminoethylthiomethyl)pyrid-4-ylthio]-3-cephem-4-carboxylic acid] | 30 | 100 | 100 | 0.46 | 5/100% | 36.2 | 60 | –
NCCSCc1nc(N)sc1SC1=C(C(=O)O)N2C(=O)[C@@H](NC(=O)/C(=N\O)c3nc(N)sc3Cl)[C@H]2SC1 [Cmpd 3, (7R)-7-[(Z)-2-(2-amino-5-chlorothiazol-4-yl)-2-(hydroxyimino)acetamido]-3-[4-(2-aminoethylthiomethyl)-2-amino-1,3-thiazol-5-ylthio]-3-cephem-4-carboxylic acid] | 50 | 90 | 100 | 0.39 | – | – | 90 | responders at 0.078 mg/kg [1, 4]: 30%; responders at 0.165 mg/kg ([1]; Staphylococcus aureus, ATCC13709, sc, dose 0.165 mg/kg s.c. at 0 and 2 h post-challenge, read-out: Efficacy in murine septicemia % survival): 40%; clearance ([2]; dose 27.5 mg/kg): 15.8 mL/min/kg
N=C(N)NCCSCc1ncccc1SC1=C(C(=O)O)N2C(=O)[C@@H](NC(=O)/C(=N\O)c3nsc(N)n3)[C@H]2SC1 [Cmpd 14, (7R)-7-[(Z)-2-(5-amino-1,2,4-thiadiazol-3-yl)-2-(hydroxyimino)acetamido]-3-[2-(2-guanidinoethylthiomethyl)pyrid-3-ylthio]-3-cephem-4-carboxylic acid] | 90 | 100 | 100 | < 0.31 | 5/100% | – | 100 | –
